Laboratory results taken from US20100075960A1 (priority 2006, published 2010).

Key:
Format in all cases: cell-based
[1] = system: H1299; assay: Inhibition of cell proliferation, H1299; conditions: Homo sapiens, NCI-H1299; Lung; 72 h; methylene blue or CellTiter-Glo
Method: (§1) II. Inhibition of Cell Proliferation by PLK1 Inhibitors.
(§2) Exponentially growing cell lines of different tumor origins, cultured in appropriate media containing 10% fetal bovine serum at 37° C. in a 5% CO2 incubator were plated in 96 or 384-well plates. Twenty four hours post-plating, cells were treated with different concentrations of test compounds ranging from 20 μM to 0.04 nM. Several wells were left untreated as a control. Seventy two hours post-treatment, cell numbers were determined using different techniques; 100 μl per well of methylene blue (Sigma M9140) (0.5% in 50:50 Ethanol:water), or 10-100 μl per well of CellTiter-Glo (Promega #G7573), depending on well size. For methylene blue staining, stain was incubated at room temperature for 30 minutes before plates were rinsed and dye solubilized in 1% N-lauroyl sarcosine, sodium salt, (Sigma L5125, in PBS). Plates were read on a microplate reader, measuring the OD at 620 nm. For CellTiter-Glo, plates were incubated at room temperature for 15 minutes and the chemiluminescent signal was read on the Victor V or Envison 2100 reader.
(§3) Percent inhibition of cell growth was expressed as percent proliferation relative to 100% proliferation (control). […]

[2] = system: HCT116; assay: Inhibition of cell proliferation, HCT116; conditions: Homo sapiens, HCT-116; 72 h treatment; methylene blue or CellTiter-Glo
[3] = system: MDA-MB-468; assay: Inhibition of cell proliferation, MDA-MB-468; conditions: Homo sapiens, Breast, 72 h, methylene blue or CellTiter-Glo
Method: as §1, §2, §3

[4] = system: LNCaP; assay: Inhibition of cell proliferation, LNCaP; conditions: Homo sapiens, Prostate, 72 h, methylene blue or CellTiter-Glo
Method: as §1, §2, §3

[5] = system: COLO205; assay: Inhibition of cell proliferation, COLO205; conditions: Homo sapiens, COLO 205; Colon; 72 h; methylene blue or CellTiter-Glo
Method: as §1, §2
(§4) Percent inhibition of cell growth was expressed as percent proliferation relative to 100% proliferation (control). Concentration of test compound that inhibited 50% of cell growth (IC50) was determined by 4 parameter fit of data using XLfit, (value of no cell control was substracted from all samples for background). The data are shown in Table 1 and Table 2 below and represent a compilation of several different experiments each performed using the general parameters outlined above, although minor variations may have been employed in some instances, in Table 1 and Table 2, +=IC50>1 μM; ++=IC50 0.5-1 μM: +++=IC50<0.5 μM.

[6] = system: MCF7; assay: Inhibition of cell proliferation, MCF7; conditions: Homo sapiens, Breast, 72 h, methylene blue or CellTiter-Glo
Method: as §1, §2, §3

[7] = system: MX-1; assay: Inhibition of cell proliferation, MX-1; conditions: Homo sapiens, MX1; Breast; 72 h; methylene blue or CellTiter-Glo
Method: as §1, §2, §4

[8] = system: HN5; assay: Inhibition of cell proliferation, HN5; conditions: Homo sapiens; Head and neck; Table 2 first HN5 line; 72 h
Method: as §1, §2, §4

[9] = system: RPMI 8226; assay: Inhibition of cell proliferation, RPMI 8226; conditions: Homo sapiens, leukemia, 72 h, methylene blue or CellTiter-Glo
Method: as §1, §2, §3

[10] = system: HT29; assay: Inhibition of cell proliferation, HT29; conditions: Homo sapiens, HT-29; Colon; 72 h; methylene blue or CellTiter-Glo
Method: as §1, §2, §4

[11] = system: SKOV-3; assay: Inhibition of cell proliferation, SKOV-3; conditions: Homo sapiens, SK-OV-3; Ovarian; 72 h; methylene blue or CellTiter-Glo
Method: as §1, §2, §4

[12] = system: Hela; assay: Inhibition of cell proliferation, Hela; conditions: Homo sapiens, Cervical, 72 h, methylene blue or CellTiter-Glo
Method: as §1, §2, §3

IC50 [1]: < 500 nM
IC50 [2]: < 500 nM
IC50 [3]: < 500 nM
IC50 [4]: 500 to 1000 nM
IC50 [5]: < 500 nM
IC50 [6]: < 500 nM
IC50 [10]: < 500 nM
IC50 [11]: < 500 nM
IC50 [12]: < 500 nM
Compound: C[C@@H](Oc1cc(-n2cnc3cc(-c4cnn(C)c4)ccc32)sc1C(N)=O)c1cccc(OC2CCN(CCS(C)(=O)=O)CC2)c1Cl [Example 31, 3-({(1R)-1-[2-Chloro-3-({1-[2-(methylsulfonyl)ethyl]-4-piperidinyl}oxy)phenyl]ethyl}oxy)-5-[5-(1-methyl-1H-pyrazol-4-yl)-1H-benzimidazol-1-yl]-2-thiophenecarboxamide]
IC50 [7]: < 500 nM
IC50 [8]: < 500 nM
IC50 [9]: < 500 nM
